From patent publication US9315494B2, “Alkyl-amide-substituted pyridyl compounds useful as modulators of IL-12, IL-23 and/or IFNα responses” (Bristol-Myers Squibb Company, priority 2012, dated 2016)
Read-outs that look alike come from different tables or passages of the source.

Assays:
[1] = test system: IL-23-stimulated STAT-dependent luciferase reporter in Kit225 T cells; assay: Kit225 T cell assay, IL-23 stimulated STAT-dependent luciferase reporter; format: cell-based, human
Outline: (§1)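 Stimulus was either 200 U/mL human recombinant IFNα or 20 ng/mL IL-23, applied for 5-6 h to reporter-bearing Kit225 T cells grown in RPMI/10% FBS. Luciferase expression then quantified by luminescent assay.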

[2] = test system: IFNα-stimulated STAT-dependent luciferase reporter in Kit225 T cells; assay: Kit225 T cell assay, IFNα stimulated STAT-dependent luciferase reporter; format: cell-based, human
Outline: as §1

[3] = Kit225 T cells, 20 ng/mL human recombinant IL-23, 5-6 hours, luciferase, read-out: IL23 (Kit225 T Cell Inhibition Data)
[4] = Kit225 T cells, 200 U/mL human recombinant IFNα, 5-6 hours, luciferase, read-out: IFNα (Kit225 T Cell Inhibition Data)
[5] = Homo sapiens, KIT225, read-out: IL23 (Kit225 T Cell Inhibition Data)
[6] = Homo sapiens, KIT225, read-out: IFNα (Kit225 T Cell Inhibition Data)

| Structure (SMILES) | IC50 [1, 3] [nM] | IC50 [2, 4] [nM] | IC50 [1, 5] [nM] | IC50 [2, 6] [nM] |
| --- | --- | --- | --- | --- |
| CNC(=O)c1cnc(Nc2ccc(F)cn2)cc1Nc1cccc(C(=O)NC2CC2)c1OC [Example 317] | 210 | 110 |  |  |
| [2H]C([2H])([2H])NC(=O)c1cnc(Nc2cc(C)c(F)cn2)cc1Nc1cccc(-c2cnn(C)c2)c1OC [Example 399] | 50 | 50 |  |  |
| CNC(=O)c1cnc(Nc2cc(C)c(F)cn2)cc1Nc1cccc(C(=O)NCCOC)c1OC [Example 352] | 20 | 20 |  |  |
| CNC(=O)c1cnc(Nc2cccc(OC)n2)cc1Nc1ccc(F)cc1OC [Example 154] | 784 | 560 |  |  |
| CNC(=O)c1cnc(Nc2ccc(C(F)(F)F)cn2)cc1Nc1ccc(Cl)cc1OC [Example 120] | 4510 | 1880 |  |  |
| CNC(=O)c1cnc(Nc2ccc(C(F)(F)F)cn2)cc1Nc1ccccc1C(N)=O [Example 82] | 1230 | 780 |  |  |
| CNC(=O)c1cnc(Nc2ccccn2)cc1Nc1cc(F)ccc1S(C)(=O)=O [Example 53] | 90 | 80 |  |  |
| CNC(=O)c1cnc(Nc2ccc(C(F)(F)F)cn2)cc1NC1CCCCC1C(N)=O (centres unmarked) [Example 290] | 11400 | 6590 |  |  |
| CCOc1ccc(Nc2cc(Nc3ccccc3S(C)(=O)=O)c(C(=O)NC)cn2)nn1 [Example 444] | 250 | 180 |  |  |
| CNC(=O)c1cnc(Nc2cc(F)ccn2)cc1Nc1ccccc1C(N)=O [Example 71] | 574 | 760 |  |  |
| CNC(=O)c1cnc(Nc2ccc(F)cn2)cc1Nc1cc(F)ccc1OC [Example 199] | 897 | 660 |  |  |
| CNC(=O)c1cnc(Nc2cc(C)c(F)cn2)cc1Nc1cccc(C(=O)Nc2ccccc2)c1OC [Example 328] | 600 | 120 |  |  |
| CNC(=O)c1cnc(Nc2ccc(F)cn2)cc1Nc1cccc(F)c1S(C)(=O)=O [Example 47] | 2410 | 1680 |  |  |
| CNC(=O)c1cnc(Nc2ccc(N3CCCCC3=O)cn2)cc1Nc1ccc(Cl)cc1OC [Example 103] | 398 | 330 |  |  |
| CNC(=O)c1cnc(Nc2ccc(N3CCOCC3)cn2)cc1Nc1ccccc1C(N)=O [Example 85] | 1040 | 630 |  |  |
| CNC(=O)c1cnc(Nc2ccc(F)cn2)cc1Nc1ccc(CCO)cc1 [Example 191] | 3070 | 3580 |  |  |
| CNC(=O)c1cnc(Nc2cc(S(=O)(=O)N(C)C)ccn2)cc1Nc1ccccc1S(C)(=O)=O [Example 19] | 749 | 430 |  |  |
| CNC(=O)c1cnc(Nc2ccc(F)cn2)cc1Nc1ccc(C(N)=O)cc1C [Example 234] | 2800 | 1870 |  |  |
| CNC(=O)c1cnc(Nc2cc(C(=O)N3CCOCC3)ccn2)cc1Nc1cc(F)cc(F)c1OC [Example 265] | 319 | 210 |  |  |
| CNC(=O)c1ccnc(Nc2cc(Nc3ccc(Cl)cc3OC)c(C(=O)NC)cn2)c1 [Example 254] | 488 | 310 |  |  |
| CNC(=O)c1cnc(Nc2ccc(N3CCOCC3)cn2)cc1Nc1cc(S(C)(=O)=O)ccc1OC [Example 222] | 8040 | 8390 |  |  |
| CNC(=O)c1cnc(Nc2ccccn2)cc1Nc1ccc(F)cc1OC [Example 147] | 1060 | 520 |  |  |
| CNC(=O)c1cnc(Nc2ccc3[nH]ccc3n2)cc1Nc1ccc(F)cc1OC [Example 160] | 1240 | 1070 |  |  |
| CNC(=O)c1cnc(Nc2cc(F)ccn2)cc1Nc1ccc(F)cc1OC [Example 149] | 1190 | 330 |  |  |
| CNC(=O)c1cnc(Nc2cc(C(F)(F)F)ccn2)cc1Nc1ccccc1C(N)=O [Example 91] | 567 | 420 |  |  |
| CCc1cccc(Nc2cc(Nc3ccc(N4CCOCC4)cn3)ncc2C(=O)NC)c1 [Example 215] | 4930 | 4330 |  |  |
| CNC(=O)c1cnc(Nc2ccccn2)cc1Nc1ccccc1C(C)(C)O [Example 183] | 9720 | 5970 |  |  |
| CNC(=O)c1cnc(Nc2cc(C)nc(C)n2)cc1Nc1cccc(-c2nc(C)n(CC(F)(F)F)n2)c1OC [Example 370] |  |  | 30 | 30 |

| Structure (SMILES) | IC50 [1, 3] [nM] | IC50 [2, 4] [nM] | IC50 [1, 5] [nM] | IC50 [2, 6] [nM] |
| --- | --- | --- | --- | --- |
| CNC(=O)c1cnc(Nc2cc(C)c(F)cn2)cc1Nc1cccc(C(=O)NCCC(C)C)c1OC [Example 338] | 400 | 110 |  |  |
| CNC(=O)c1cnc(Nc2cc(F)ccn2)cc1Nc1ccccc1S(C)(=O)=O [Example 23] | 115 | 90 |  |  |
| CNC(=O)c1cnc(Nc2ccc(-n3cc(F)ccc3=O)cn2)cc1Nc1ccc(Cl)cc1OC [Example 106] | 439 | 180 |  |  |
| CNC(=O)c1cnc(Nc2ccc(N3CCOCC3)cn2)cc1Nc1ccc(OC)cc1OC [Example 220] | 492 | 210 |  |  |
| CNC(=O)c1cnc(Nc2ccc(N3CCOCC3)cn2)cc1Nc1ccccc1F [Example 214] | 2930 | 2010 |  |  |
| CNC(=O)c1cnc(Nc2ccc(C(F)(F)F)cn2)cc1Nc1ccc(F)cc1OC [Example 157] | 5200 | 9860 |  |  |
| CNC(=O)c1cnc(Nc2cc(C)nc(C)n2)cc1Nc1cccc(-c2ncn(C)n2)c1OC [Example 372] | 10 | 10 |  |  |
| CNC(=O)c1cnc(Nc2cc3ccccc3cn2)cc1Nc1ccccc1S(C)(=O)=O [Example 25] | 87.7 | 110 |  |  |
| CNC(=O)c1cnc(Nc2cc3ccccc3cn2)cc1Nc1ccccc1C(N)=O [Example 89] | 343 | 370 |  |  |
| CNC(=O)c1ccnc(Nc2cc(Nc3ccc(F)cc3OC)c(C(=O)NC)cn2)c1 [Example 275] | 1040 | 680 |  |  |
| CNC(=O)c1cnc(Nc2ccccn2)cc1Nc1ccc(OC)cc1S(C)(=O)=O [Example 8] | 143 | 60 |  |  |
| CNC(=O)c1cnc(Nc2ccc(N3CCOCC3)cn2)cc1Nc1ccc(Br)cc1OC [Example 221] | 456 | 150 |  |  |
| CNC(=O)c1cnc(Nc2cc(C)c(F)cn2)cc1Nc1cccc(C(=O)NCC(C)(C)C)c1OC [Example 340] | 220 | 120 |  |  |
| CNC(=O)c1cnc(Nc2cc(C)nc(C)n2)cc1Nc1cccc(-c2ncnn2CC(F)F)c1OC [Example 379] | 80 | 30 |  |  |
| CCN(CC)C(=O)c1ccc(Nc2cc(Nc3ccc(F)cn3)ncc2C(=O)NC)c(OC)c1 [Example 240] | 625 | 410 |  |  |
| CNC(=O)c1cnc(Nc2cc(C)c(F)cn2)cc1Nc1cccc(C(=O)NCC(C)(C)O)c1OC [Example 347] | 190 | 70 |  |  |
| CNC(=O)c1cnc(Nc2cc(C(=O)N3CCOCC3)ccn2)cc1Nc1ccc(F)cc1OC [Example 269] | 1080 | 900 |  |  |
| CNC(=O)c1cnc(Nc2ccc(F)cn2)cc1Nc1ccc(OC)cc1 [Example 195] | 3130 | 3520 |  |  |
| CNC(=O)c1cnc(Nc2cc(C)c(C#N)c(C)n2)cc1Nc1ccc(F)cc1OC [Example 163] | 306 | 230 |  |  |
| CNC(=O)c1cnc(Nc2ccc(F)cn2)cc1Nc1ccc(F)cc1S(C)(=O)=O [Example 13] | 257 | 120 |  |  |
| CNC(=O)c1cnc(Nc2cc(C)c(F)cn2)cc1Nc1cccc(-c2nc(C)nn2C)c1OC [Example 386] |  |  | 20 | 10 |
| CNC(=O)c1cnc(Nc2cccc(-n3ccccc3=O)n2)cc1Nc1cc(F)cc(F)c1OC [Example 164] | 4410 | 2990 |  |  |
| CNC(=O)c1cnc(Nc2cc(C)nc(C)n2)cc1Nc1cccnc1OC [Example 314] | 190 | 80 |  |  |
| CNC(=O)c1cnc(Nc2ccccn2)cc1Nc1ccc(Cl)cc1OC [Example 110] | 998 | 420 |  |  |
| CNC(=O)c1cnc(Nc2ccc(F)cn2)cc1Nc1ccc(F)cc1OCF [Example 151] | 1140 | 240 |  |  |
| CNC(=O)c1cnc(Nc2ccc(F)cn2)cc1Nc1ccccc1OC(F)(F)F [Example 209] | 1580 | 1310 |  |  |
| CNC(=O)c1cnc(Nc2cc(C(F)(F)F)ccn2)cc1Nc1ccccc1S(C)(=O)=O [Example 14] | 135 | 110 |  |  |
